Key:
[1] = system: phospholipids of the cellular membranes (hem1Δ strain); assay: Fatty acid content of cellular phospholipids (lipid extraction, ESI-MS); format: cell-based, Saccharomyces cerevisiae
Description: The hem1Δ strain is grown in liquid medium (YPG^A, YPG^+, or YPG^++200 μM compound to be tested) under aerobic conditions, with shaking and at 28° C. for 7 hours, from an initial cell concentration of 2×10^6 cells/ml. At the conclusion of the culture, 10^8 cells are collected in order to carry out a total lipid extraction. After having suspended the cells in 1 ml of distilled water at 4° C., 500 μl of glass beads (Ø 0.6 mm) are added and the whole then undergoes 3 sequences of 20 seconds at 5000 rpm in a shaker (the tubes are kept on ice between each of the 3 sequences). The cell lysate then obtained, supplemented with bead-washing solution (1 ml), is then transferred to a 40 ml glass tube (Corex™) before carrying out the lipid extraction using a 2:1 (v/v) methanol:chloroform ratio. First, 6 ml of methanol is added and the whole is vortexed for 30 seconds and then incubated for 15 minutes at 65° C. Once the mixture cools to room temperature, 3 ml of chloroform is added and then the whole is vortexed again for 30 seconds before allowing the extraction to proceed for 16 hours. Later, the sample is centrifuged for 12 minutes at 10000 g before transferring the supernatant to a new Corex™ tube. After adding 2 ml of chloroform and then 4 ml of distilled water, the whole is vortexed for 30 seconds and then centrifuged for 8 minutes at 3000 g. After removing the resulting upper phase, the lower organic phase is collected in a glass hemolysis tube. Finally, the solvent is evaporated under a stream of nitrogen at 80° C. in order to obtain the total cellular lipid samples.
The total cellular lipid samples are resuspended in 1 ml of dichloromethane while being vortexed for 30 seconds. The whole is deposited on a silica column (BOND ELUT-SI, 100 mg 1 ml) preconditioned successively with 3 ml of methanol and then 2 ml of dichloromethane. The fraction retained by the column is then washed successively with 2 ml of dichloromethane and then 3 ml of acetone. Finally, 2 ml of a 50:45:5 (v/v/v) chloroform/methanol/water mixture is deposited on the column and the phospholipids thus eluted are collected in a glass hemolysis tube. The solvent is evaporated under nitrogen at 80° C. in order to obtain the cellular phospholipid samples.
Once resuspended in 100 μl of the mixture Mix^− (2:1:1 (v/v/v) isopropanol/acetonitrile/water+1% (v/v) triethylamine) or the mixture Mix^+ (2:1:1 (v/v/v) isopropanol/acetonitrile/water+1% (v/v) formic acid), the samples are analyzed by electrospray ionization mass spectrometry (ESI-MS) in negative or positive mode, respectively, and the results obtained are used to analyze the fatty acid content of the various phospholipid species.

[2] = system: BRIN-BD11 pancreatic β-cells; assay: Cell viability of palmitic acid-lipointoxicated pancreatic β-cells (propidium iodide, flow cytometry); format: cell-based, rat; conditions: BRIN-BD11, 200 μM palmitic acid
Description: Pancreatic β-cells, BRIN-BD11, were grown under control conditions or in the presence of an exogenous source of saturated fatty acid (200 μM palmitic acid), as described by Dhayal & Morgan (2011), in order to generate lipointoxication conditions, with or without the addition of OAG. A) The proportion of dead cells was estimated in the absence (control) or presence of palmitic acid, for increasing concentrations of OAG. B) eIF2α phosphorylation levels were also analyzed under the various conditions by Western blot, in the presence or absence (Ø) of OAG, and were normalized to total eIF2α.
The lipid species are prepared in ethanol before being complexed with bovine serum albumin (BSA, first depleted of fatty acids) by incubation for 1 hour at 37° C. The palmitic acid stock solution is obtained by adding one volume of ethanol before the whole is heated to 70° C. for homogenization. OAG and LPA solutions are prepared in 100% ethanol at room temperature. For the incubations of mammalian cells, the final BSA and ethanol concentrations in the culture medium are kept at 1% and 0.5% (w/v), respectively.
The rat pancreatic β-cell line (BRIN-BD11) is grown in complete RPMI-1640 medium, containing 11 mM glucose and supplemented with 10% (v/v) fetal calf serum (FCS), 2 mM L-glutamine, 100 U/ml penicillin and 100 μg/ml streptomycin. For each experiment, the cells are first seeded at a density of 0.5×10^5 cells/ml in 6-well plates for 24 hours. Thereafter, the complete medium is replaced by an equivalent lacking FCS but containing the lipid reagents of interest, at the desired concentrations, complexed with BSA. Under the control conditions, identical amounts of BSA and ethanol are then used. […] After incubation on ice for 10 minutes, the samples thus obtained are analyzed by flow cytometry. A Beckman Coulter EPICS XL MCL is used for the quantification, an FL3 channel is used to detect the emissions of the PI intercalated in the DNA, and the analysis is carried out using the EXPO32 ADC software (Applied Cytometry Systems, V 1.1 build 207).

lipase = assay: Resistance to hydrolytic activity of lipases (thin-layer chromatography); format: in vitro ADME; conditions: 10 U of lipase, 30 minutes, 37° C.
Description: OAG (15 μmol) and N,N-diethanololeamide were subjected (+) or not (−) to exposure to 10 U of lipase for 30 minutes at 37° C. Following the incubation, the lipid species were extracted from the samples before being separated by thin-layer chromatography.

[3] = system: hem1Δ yeasts grown under SFA accumulation conditions; assay: Restoration of growth of lipointoxicated hem1Δ yeast; format: cell-based, Saccharomyces cerevisiae; conditions: after 3 days, increasing concentrations
Description: The strain bearing the hem1Δ mutation is grown, under aerobic conditions, with shaking and at 28° C., in liquid YPG^A medium (YPG (1% yeast extract (w/v), 1% peptone (w/v) and 2% glucose (w/v)) supplemented with 80 μg/ml 6-aminolevulinic acid (ALA)). Lipointoxication by saturated fatty acids (SFA) is caused by depletion of unsaturated fatty acids (UFA), the synthesis of which is dependent on the presence of heme (the prosthetic group of the Ole1p enzyme in particular), by transfer to YPG^+ medium (YPG supplemented with 80 μg/ml ergosterol to compensate for the sterol depletion obtained under this condition). Lipointoxication can be induced on solid YPG^+ medium+2% agar (w/v) by transferring 3500 cells (hem1Δ from preculture in YPG^A) per cm^2 or, alternatively, in liquid medium by inoculating 2×10^6 cells/ml YPG^+. Classically, the effects of SFA lipointoxication are analyzed 7 hours after the transfer to YPG^+ medium. The ability of a compound to counter the deleterious effects of SFA lipointoxication, in turn, is evaluated successively to the addition of this compound on (or in) the YPG^+ transfer medium, after seeding with the cells.
Following the induction of SFA lipointoxication (for hem1Δ grown on solid medium) 5 μl drops of solutions of the various compounds at 10 mM in dimethylsulfoxide (DMSO) or ethanol (EtOH) are deposited on the surface of the agar. The ability of a compound to counter the arrest of lipid-induced cell growth is estimated by the appearance of a halo of hem1Δ colonies at the site of the deposition of said compound after 3 days of culture at 28° C. (see Deguil et al., 2011).
Jointly with the induction of SFA lipointoxication (for hem1Δ in liquid medium), the various compounds are added to the cultures at an initial concentration of 200 μM. Proliferation is monitored by spectrometric measurement of cell density, at regular time intervals (every hour over the duration of the observation). At a wavelength of 600 nm, one optical density unit (OD600 nm) corresponds to 2×10^7 cells/ml.

[4] = system: QM strain (cells not synthesizing triglycerides); assay: Toxicity test on QM strain (growth inhibition halos); format: cell-based, Saccharomyces cerevisiae; conditions: 5 μl drops on agar, after three days
Description: Drops (5 μl) of OAG, LPA or oleic acid were deposited, from stock solutions at the indicated concentrations, on the surface of an agar medium over which the QM strain had been spread beforehand. […] These halos are, however, not observed in the presence of LPA or of OAG.
In parallel, wild-type (WT) and quadruple mutant (QM) strains are grown, under aerobic conditions, with shaking and at 28° C., in liquid YPG medium before seeding 3500 cells per cm^2 of YPG+2% agar (w/v). Following this transfer to solid medium, 1 μl drops of 1, 10 and 100 mM solutions of the various compounds in DMSO or EtOH are deposited on the agar surface. Separately, DMSO and EtOH are also deposited in order to evaluate the intrinsic toxicity of these two solvents. After 3 days of culture at 28° C., the toxicity of the compounds tested is evaluated by comparing the growth inhibition halo diameters obtained for the depositions of pure solvent with those of the depositions of the various concentrations of the compounds tested. Unlike the WT strain, the QM strain is incapable of buffering excess exogenous oleic acid in the form of neutral lipids (triglycerides (TG) or esterified sterols (ES)) in lipid droplets.

Structure (SMILES)	Effect on fatty acid composition of membrane phospholipids [1]	Apoptosis / proportion of dead cells of pancreatic β-cells [2]	Hydrolysis by lipases (lipase)	Restoration of the growth of hem1Δ yeasts [3]	Growth inhibition halos on QM strain [4]
CCCCCCCC/C=C\CCCCCCCC(=O)OCC(CO)(CO)CO [3-hydroxy-2,2-bis(hydroxymethyl)propyl oleate]	without restoring a normal diunsaturated phospholipid composition	prevent apoptosis	–	–	–
CCCCCCCC/C=C\CCCCCCCC(=O)N(CCO)CCO [N,N-diethanololeamide]	without restoring a normal diunsaturated phospholipid composition	prevent apoptosis	resists hydrolysis by lipases	–	–
CCCCCCCC/C=C\CCCCCCCC(=O)O [oleic acid, reference compound]	–	–	–	restore the growth	growth inhibition halos (absence of colonies) can be observed
